Results as given in patent US9682938B2, “Pyrazolone derivatives as nitroxyl donors” (Cardioxyl Pharmaceuticals, Inc., priority 2014, dated 2017).

How the values were obtained:
Assay type in all cases: in vitro ADME
[1] = In vitro plasma stability, human plasma; details: male, pH 7.4, 5 μM, 37° C., sampling 0-360 minutes, read-out: T1/2 Human
Protocol: (§1) Certain compounds from Table 1 were tested for their stability in plasma. The assay system comprised plasma from rat, dog or human (at least 3 donors, male, pooled) at pH 7.4, and (ii) an anticoagulant (sodium heparin or sodium citrate). Each test compound (5 μM) was incubated in plasma at 37° C. on a THERMOMIXER® with shaking. Three samples (n=3) were taken at each of seven sampling time points: 0, 10, 30, 60, 90, 180 and 360 minutes. The samples were immediately combined with 3 volumes (i.e., 3 times the volume of plasma) of acetonitrile containing 1% formic acid and an internal standard to terminate the reaction. AB SCIEX API 3000 LC-MS/MS analysis of the test compounds was performed without a standard curve. Plasma half-lives (T1/2) of the test compounds were determined from graphs of the percent remaining values using the peak area response ratio.

[2] = In vitro plasma stability, rat plasma; details: male, pH 7.4, 5 μM, 37° C., sampling 0-360 minutes, read-out: T1/2 Rat
Protocol: as §1

[3] = In vitro plasma stability, dog plasma; details: male, pH 7.4, 5 μM, 37° C., sampling 0-360 minutes, read-out: T1/2 Dog
Protocol: as §1

Row | Structure (SMILES) | half-life at 5 μM [1] | half-life at 5 μM [2] | half-life at 5 μM [3]
1 | CN1N=C(c2cccc(C(F)(F)F)c2)C(C)(NO)C1=O (stereo not drawn) [Compound 22, 4-(hydroxyamino)-2,4-dimethyl-5-(3-(trifluoromethyl)phenyl)-2,4-dihydro-3H-pyrazol-3-one] | 55 min | 44 min | 114 min
2 | CC(C)(C)C1=NN(c2ccccc2)C(=O)C1(C)NO (stereo not drawn) [Compound 23, 5-(tert-butyl)-4-(hydroxyamino)-4-methyl-2-phenyl-2,4-dihydro-3H-pyrazol-3-one] | 104 min | 136 min | 120 min
3 | CC(C)N1N=C(c2ccccc2F)C(C)(NO)C1=O (stereo not drawn) [Compound 26, 5-(2-fluorophenyl)-4-(hydroxyamino)-2-iso-propyl-4-methyl-2,4-dihydro-3H-pyrazol-3-one] | 45 min | 42 min | 65 min
4 | CCC1(NO)C(=O)N(C)N=C1c1ccccc1F (stereo not drawn) [Compound 31, 4-ethyl-5-(2-fluorophenyl)-4-(hydroxyamino)-2-methyl-2,4-dihydro-3H-pyrazol-3-one] | 59 min | 66 min | 201 min
5 | CC(C)N1N=C(c2ccc(S(C)(=O)=O)cc2)C(C)(NO)C1=O (stereo not drawn) [Compound 32, 4-(hydroxyamino)-2-iso-propyl-4-methyl-5-(4-(methylsulfonyl)phenyl)-2,4-dihydro-3H-pyrazol-3-one] | 100 min | 64 min | 148 min
6 | CC1=NN(c2ccc(S(C)(=O)=O)cc2)C(=O)C1(C)NO (stereo not drawn) [Compound 33, 4-(hydroxyamino)-4,5-dimethyl-2-(4-(methylsulfonyl)phenyl)-2,4-dihydro-3H-pyrazol-3-one] | 130 min | 175 min | 100 min
7 | CN1N=C(c2ccc([S+]([O-])C(F)(F)F)cc2)C(C)(NO)C1=O (stereo not drawn) [Compound 35, 4-(hydroxyamino)-2,4-dimethyl-5-(4-((trifluoromethyl)sulfinyl)phenyl)-2,4-dihydro-3H-pyrazol-3-one] | 76 min | 79 min | 44 min
8 | CN1N=C(c2ccc([S+](C)[O-])c(F)c2)C(C)(NO)C1=O (stereo not drawn) [Compound 38, 5-(3-fluoro-4-(methylsulfinyl)phenyl)-4-(hydroxyamino)-2,4-dimethyl-2,4-dihydro-3H-pyrazol-3-one] | 46 min | 54 min | 33 min
9 | Cc1cc(C2=NN(C)C(=O)C2(C)NO)ccc1[S+](C)[O-] (stereo not drawn) [Compound 39, 4-(hydroxyamino)-2,4-dimethyl-5-(3-methyl-4-(methylsulfinyl)phenyl)-2,4-dihydro-3H-pyrazol-3-one] | 60 min | 134 min | 59 min
10 | Cc1cc(C2=NN(C)C(=O)C2(C)NO)ccc1S(C)(=O)=O (stereo not drawn) [Compound 41, 4-(hydroxyamino)-2,4-dimethyl-5-(3-methyl-4-(methylsulfonyl)phenyl)-2,4-dihydro-3H-pyrazol-3-one] | 54 min | 64 min | 38 min
11 | CN1N=C(c2cc(F)c(S(C)(=O)=O)c(F)c2)C(C)(NO)C1=O (stereo not drawn) [Compound 45, 5-(3,5-difluoro-4-(methylsulfonyl)phenyl)-4-(hydroxyamino)-2,4-dimethyl-2,4-dihydro-3H-pyrazol-3-one] | 40 min | 25 min | 31 min
12 | CN1N=C(c2ccc(SC(F)(F)F)cc2)C(C)(NO)C1=O (stereo not drawn) [Compound 67, 4-(hydroxyamino)-1,4-dimethyl-3-(4-((trifluoromethyl)thio)phenyl)-1H-pyrazol-5(4H)-one] | 59 min | 106 min | 78 min
13 | CN1N=C(c2ccc(S(C)(=O)=O)c(Cl)c2)C(C)(NO)C1=O (stereo not drawn) [Compound 70, 3-(3-Chloro-4-methanesulfonylphenyl)-4-(hydroxyamino)-1,4-dimethyl-4,5-dihydro-1H-pyrazol-5-one] | 31 min | 43 min | 27 min
14 | CN1N=C(c2ccc(S(C)(=O)=NC(=O)C(F)(F)F)cc2)C(C)(NO)C1=O (stereo not drawn) [Compound 72, 2,2,2-Trifluoro-N-({4-[4-(hydroxyamino)-1,4-dimethyl-5-oxo-4,5-dihydro-1H-pyrazol-3-yl]phenyl}(methyl)oxo-λ^6-sulfanylidene)acetamide] | 13 min | 9 min | 12 min
15 | COc1cc(C2=NN(C)C(=O)C2(C)NO)ccc1S(C)(=O)=O (stereo not drawn) [Compound 77, 4-(Hydroxyamino)-3-(4-methanesulfonyl-3-methoxyphenyl)-1,4-dimethyl-4,5-dihydro-1H-pyrazol-5-one] | 40 min | 62 min | 37 min
16 | Cc1cc(C2=NN(C)C(=O)C2(C)NO)cc(C)c1S(C)(=O)=O (stereo not drawn) [Compound 79, 4-(Hydroxyamino)-3-(4-methanesulfonyl-3,5-dimethylphenyl)-1,4-dimethyl-4,5-dihydro-1H-pyrazol-5-one] | 49 min | 85 min | 49 min

The next lines start with the values.

Row | half-life at 5 μM [1] | half-life at 5 μM [2] | half-life at 5 μM [3] | Structure (SMILES)
17 | 11 min | 10 min | 16 min | CC1=NN(c2ccccc2)C(=O)C1(NO)c1ccccc1 (stereo not drawn) [Compound 24, 4-(hydroxyamino)-5-methyl-2,4-diphenyl-2,4-dihydro-3H-pyrazol-3-one]
18 | 21 min | 19 min | 23 min | CC1=NN(C)C(=O)C1(NO)c1ccc(F)cc1 (stereo not drawn) [Compound 27, 4-(4-fluorophenyl)-4-(hydroxyamino)-2,5-dimethyl-2,4-dihydro-3H-pyrazol-3-one]
19 | 22 min | 32 min | 84 min | CC1=NN(C(C)C)C(=O)C1(NO)c1ccccc1 (stereo not drawn) [Compound 30, 4-(hydroxyamino)-1-isopropyl-3-methyl-4-phenyl-1H-pyrazol-5(4H)-one]
20 | 152 min | 300 min | 133 min | CSc1ccc(C2=NN(C)C(=O)C2(C)NO)cc1 (stereo not drawn) [Compound 36, 4-(hydroxyamino)-2,4-dimethyl-5-(4-(methylthio)phenyl)-2,4-dihydro-3H-pyrazol-3-one]
21 | 8 min | 5 min | 3 min | CC1=NN(C)C(=O)C1(NO)c1ccc(S(C)(=O)=O)cc1 (stereo not drawn) [Compound 37, 4-(hydroxyamino)-2,5-dimethyl-4-(4-(methylsulfonyl)phenyl)-2,4-dihydro-3H-pyrazol-3-one]
22 | 6 min | 9 min | 5 min | CO/N=C(\C)C1(NO)C(=O)N(C)N=C1c1ccc(S(C)(=O)=O)cc1 (stereo not drawn) [Compound 42, 4-(hydroxyamino)-4-(1-(methoxyimino)ethyl)-2-methyl-5-(4-(methylsulfonyl)phenyl)-2,4-dihydro-3H-pyrazol-3-one]
23 | 35 min | 25 min | 23 min | COc1ccc(C2(NO)C(=O)N(C)N=C2C)cc1 (stereo not drawn) [Compound 43, 4-(hydroxyamino)-4-(4-methoxyphenyl)-1,3-dimethyl-1H-pyrazol-5(4H)-one]
24 | 11 min | 9 min | 12 min | CO/N=C(\C)C1(NO)C(=O)N(C)N=C1c1ccccc1 (stereo not drawn) [Compound 46, 4-(hydroxyamino)-4-(1-(methoxyimino)ethyl)-2-methyl-5-phenyl-2,4-dihydro-3H-pyrazol-3-one]
25 | 480 min | 350 min | 256 min | COc1ccc(C2=NN(C)C(=O)C2(C)NO)cc1 (stereo not drawn) [Compound 53, 4-(hydroxyamino)-3-(4-methoxyphenyl)-1,4-dimethyl-1H-pyrazol-5(4H)-one]
26 | 77 min | 80 min | 150 min | CN1N=C(c2ccc(OC(F)(F)F)cc2)C(C)(NO)C1=O (stereo not drawn) [Compound 59, 4-(hydroxyamino)-1,4-dimethyl-3-(4-(trifluoromethoxy)phenyl)-1-pyrazol-5(4H)-one]
27 | 8 min | 6 min | 16 min | CO/N=C(\C)C1(NO)C(=O)N(C)N=C1c1ccc(F)cc1 (stereo not drawn) [Compound 64, 3-(4-fluorophenyl)-4-(hydroxyamino)-4-(1-(methoxyimino)ethyl)-1-methyl-1H-pyrazol-5(4H)-one]
28 | 10 min | 7 min | 7 min | CC1=NN(C)C(=O)C1(NO)c1ccc(Cl)cc1 (stereo not drawn) [Compound 66, 4-(4-chlorophenyl)-4-(hydroxyamino)-1,3-dimethyl-1H-pyrazol-5(4H)-one]
29 | 58 min | 3 min | 71 min | COC(=O)c1ccc(C2=NN(C)C(=O)C2(C)NO)cc1 (stereo not drawn) [Compound 71, Methyl 4-[4-(hydroxyamino)-1,4 dimethyl-5-oxo-4,5-dihydro-1H-pyrazol-3-yl]benzoate]
30 | 14 min | 18 min | 13 min | COc1ccc(C2(NO)C(=O)N(C)N=C2C)cc1OC (stereo not drawn) [Compound 73, 4-(3,4-Dimethoxyphenyl)-4-(hydroxyamino)-1,3-dimethyl-4,5-dihydro-1H-pyrazol-5-one]
31 | 183 min | 243 min | 175 min | CN1N=C(c2ccc(C(=O)O)cc2)C(C)(NO)C1=O (stereo not drawn) [Compound 74, 4-[4-(Hydroxyamino)-1,4-dimethyl-5-oxo-4,5-dihydro-1H-pyrazol-3-yl]benzoic acid]
